Legend:
DNTs [1] = assay: Ex vivo DNT expansion in increasing concentrations of Ide; type: cell-based, human
Method: DNT was obtained and expanded as previously reported in the presence or absence of Ide (Selleckchem). Briefly, blood from healthy donor was collected in sodium heparin containing vacutainers (Becton, Dickinson and Company). Then, CD4^+ and CD8^+ T cells were depleted from healthy donor-derived PBMCs by incubating whole blood with RosetteSep human CD4 and CD8 depletion cocktail (StemCell Technologies) followed by density gradient centrifugation to collect CD4 and CD8 depleted buffy coats.

DNTs [2] = assay: Memory status of ex vivo expanded DNTs (CD45RA, CD62L flow cytometry); type: cell-based, human; conditions: end of expansion (day 17)
Description: (FIG. 6A) Representative flow plots showing memory status. […] Tnaive/SCM=CD45RA^+CD62L^+; TCM=CD45RA^−CD62L^+; TEM=CD45RA^−CD62L; Teffector=CD45RA^+CD62L^−. (FIG. 6B) Frequency of DNTs in early memory subset TCM/SCM (CD45RA^+/CD62L^+ and CD45RA^−CD62L^+; left), TEM (CD45RA^−CD62L^−; middle) and TEFF (CD45RA^+CD62L^−; right) from day 7 to day 17 of ex vivo DNT expansion culture. […] Each dot represents DNTs from one donor. The cell number is normalized to day 0 DNT number. […] The expression shown is relative to the expression of housekeeping gene, HPRT. Each paired symbols represent DNTs from one donor. […] Expansion fold relative to the number of DNTs at the start of co-culture was determined after 2 days and 8 days (Left). Absolute number of viable DNTs from each treatment group after co-culture with OCI-AML3 (Right). […] (FIG. 6F) Memory status of DNTs 8 days post co-culture with OCI-AML3 determined by flow-cytometry. […]

DNTs [3] = assay: Exhaustion marker expression on DNTs (flow cytometry); type: cell-based, human
Description: FIGS. 7A-7G. […] Representative flow plot is shown (Left). The numbers represent the MFI value (Right). […] Horizontal bars represent the mean relative MFI and error bars show SEM. (FIG. 7C) Expression of exhaustion associated transcription factor gene, TOX, relative to the expression of housekeeping gene, HPRT, determined by qPCR. Each paired symbol represents DNTs from one individual. […] Subsequently, cells were intracellularly stained with anti-TNFα and anti-IFNγ antibodies, and the expression levels were determined by flow cytometry. Representative flow plot is shown (Left). The numbers represent the frequency in each gate. […] The result shown is a summary of three experiments. (FIG. 7E) Frequency of viable ctrl-DNTs and Ide-DNTs on day 17 of expansion. The cell viability was determined with Annexin V and 7-AAD staining using flow cytometry. […] (FIG. 7F) Viability of ctrl-DNTs and Ide-DNTs after co-culture with primary AML cells from 7 different patients. […]
The following antibodies were used in this study: CD4-FITC or -APCcy7, CD56-PE, CD3-PEcy7 or -Alexa Flour700, CD8-APC or -APCcy7, CD45RA-FITC, CD95-APC, CD62L-PEcy7, CTLA4-PE, LAG3-PEcy7, TIM3-APC, CD45-FITC or -APCcy7, CD34-PE, CD33-APC, AnnexinV-Pacific Blue or -FITC, 7AAD, IFNy-PE, TNFα-APC and DAPI. […] Data were obtained using Attune NXT flow Cytometer (ThermoFisher) and analyzed with Flowjo software (Tree Star, Inc.).

DNTs [4] = assay: DNT viability (Annexin V, 7-AAD flow cytometry); type: cell-based, human; conditions: 5 healthy donors, day 17
Method: The result shown is a summary of three experiments. […] The cell viability was determined with Annexin V and 7-AAD staining using flow cytometry. […] Subsequently, the viability of DNTs (gated on CD45^high CD3^+CD33/CD34^−) were determined using flow cytometry. […] Each paired symbol represents DNTs from one donor.
and viability of effector cells was calculated by 100-% AnnexinV^+ in cultures of DNTs with AML.

DNTs [5] = assay: CD69 expression on ex vivo expanded DNTs; type: cell-based, human; conditions: 0, 1 and 5 μM Ide; day 7, 10 and 17
Method: Frequency of CD69 expression from day 7, 10 and 17 ex vivo expanded DNTs in 0, 1 and 5 μM of de.

[6] = autoimmune toxicities, infection, diarrhea, skin problems; cited from earlier work
DNTs [7] = assay: Effect of JQ1 on memory status of DNTs (flow cytometry of CD27, CD62L, CD45RA); type: cell-based, human; conditions: JQ1 0.075, 0.15, 0.30 μM for 20 days; day 14, 17 and 20 of DNT expansion
Description: JQ1 was given to the culture on day 0, 3, 7, 10, 14, and 17.

conventional T cells = conditions: Kagoya et al. 2016; cited from earlier work

expression of inhibitory receptor Lag3 on DNTs compared to ctrl-DNTs (DNTs [3])	expression of inhibitory receptor Tim3 on DNTs compared to ctrl-DNTs (DNTs [3])	SMILES	DNT viability at the end of cell expansion cultures (DNTs [1]; 1 μM Ide)	cell yield at the end of expansion compared to vehicle control (DNTs [1]; 0.1-1.0 μM Ide)	DNT expansion (DNTs [1]; 3.0-10.0 μM of Ide)	TCM/TSCM cell number, fold higher compared to ctrl-DNTs (DNTs [2])	viability of DNTs after expansion (DNTs [4])	CD69 expression (DNT activation signal) (DNTs [5])	adverse events associated with Ide-treatment [6]	memory formation of DNTs across treatment groups (DNTs [7])	inducing memory phenotype on conventional T cells (conventional T cells)
reduced the expression	reduced the expression	CC[C@H](Nc1ncnc2[nH]cnc12)c1nc2cccc(F)c2c(=O)n1-c1ccccc1 [Ide, 5-fluoro-3-phenyl-2-[(1S)-1-(7H-purin-6-ylamino)propyl]quinazolin-4-one]	highest DNT viability	improved cell yield	compromised	3.87±0.82 fold	significantly improved the viability	reduced levels of CD69 expression in a dose-dependent manner	severe adverse events	–	–
–	–	Cc1sc2c(c1C)C(c1ccc(Cl)cc1)=N[C@@H](CC(=O)OC(C)(C)C)c1nnc(C)n1-2 [JQ1]	–	–	–	–	–	–	–	no biologically meaningful differences	top hit amongst 31 chemicals tested

From US20260265691A1, “METHODS TO IMPROVE THE PERSISTENCE OF DOUBLE NEGATIVE T CELLS” (priority 2022, published 2026)
